Columns and labels:
PTC Colon = assay: three day MTT cytotoxicity assay, PTC; type: cell-based, human; details: Standard (DMSO control), 72 hours
Description: (§1) Briefly, a three day MTT cytotoxicity assay was performed, which is based on the principle of uptake of MTT (3-(4,5-dimethylthiazol-2-yl)-2,5-diphenyl tetrazolium bromide), a tetrazolium salt, by the metabolically active cells where it is metabolized by active mitochondria into a blue colored formazan product that is read spectrophoto-metrically. MTT was dissolved in phosphate buffered saline with a pH of 7.4 to obtain an MTT concentration of 5 mg/ml; the resulting mixture was filtered through a 0.22 micron filter to sterilize and remove a small amount of insoluble residue. For each type of tumor cell, 20,000 to 50,000 cells were seeded in a 96-well culture plate and incubated with the formulation or standard in a CO2 incubator for […]. […] The assay was terminated after 72 hours by adding 100 ug (20 ul) of MTT to each well, then incubating for additional one hour, and finally adding 50 ul of 10% SDS-0.01N HCl to each well to lyse the cells and dissolve formazan. After incubating for one hour, the plate was read spectrophoto-metrically at 540 nm and the percentage cytotoxicity calculated.

L132 Lung = assay: three day MTT cytotoxicity assay, L132; type: cell-based, human; details: Standard (DMSO control), 72 hours
Description: as §1

DU145 Prostate = assay: three day MTT cytotoxicity assay, DU145; type: cell-based, human; details: Standard (DMSO control), 72 hours
Description: as §1

Molt 4 Leukemia = assay: three day MTT cytotoxicity assay, Molt 4; type: cell-based, human; details: Standard (DMSO control), 72 hours
Description: as §1

U87MG Glioblastoma = assay: three day MTT cytotoxicity assay, U87MG; type: cell-based, human; details: Standard (DMSO control), 72 hours
Description: as §1

Miapaca2 Pancreas = assay: three day MTT cytotoxicity assay, Miapaca2; type: cell-based, human; details: Standard (DMSO control), 72 hours
Description: as §1

KB Oral = assay: three day MTT cytotoxicity assay, KB; type: cell-based, human; details: Standard (DMSO control), 72 hours
Description: as §1

sarcoma tumor = details: in vivo; cited from earlier work
sarcoma 180 cells = details: injected into mice along with sarcoma 180 cells; cited from earlier work

Structure (SMILES)	ED50 of cytotoxicity (PTC Colon) [mM]	ED50 of cytotoxicity (L132 Lung) [mM]	ED50 of cytotoxicity (DU145 Prostate) [mM]	ED50 of cytotoxicity (Molt 4 Leukemia) [mM]	ED50 of cytotoxicity (U87MG Glioblastoma) [mM]	ED50 of cytotoxicity (Miapaca2 Pancreas) [mM]	ED50 of cytotoxicity (KB Oral) [mM]	sarcoma tumor growth (sarcoma tumor)	tumor development (sarcoma 180 cells)
COC(=O)C1CCC(=O)N1C(O)C(C)=O (centres unmarked) [MGC1]	3.7 ± 1.4	>5	1.7 ± 0.6	1.5 ± 0.4	2.25 ± 0.5	4.2 ± 1.3	1.7 ± 0.5		
CCOC(=O)C1CCC(=O)N1C(O)C(C)=O (centres unmarked) [MGC4]	3.8 ± 1.1	>5	1.8 ± 0.3	1.5 ± 0.2	2.4 ± 0.5	4.2 ± 1.1	1.55 ± 0.3		
CC(=O)OC(C(C)=O)N1C(=O)CCC1C(=O)OCc1ccccc1 (centres unmarked) [MGC7]	2.4 ± 0.5	>5	0.85 ± 0.3	1.5 ± 0.2	1.84 ± 0.6	2.4 ± 1.0	1.85 ± 0.6		
CC(=O)C=O [Methylglyoxal, 2-oxopropanal]								significantly inhibited	no tumor developed

— patent US6596755B2 (Dabur Research Foundation, priority 2001, dated 2003)
